Test results: patent publication US20240300980A1, “HETEROCYCLIC COMPOUNDS AS KRAS INHIBITOR, AND PREPARATION THEREFOR AND USE THEREOF IN TREATMENT” (SHANGHAI KECHOW PHARMA, INC., priority 2021, published 2024)

The compounds below were run on AGS cells (KRAS^G12D) (assay: Detection of cell proliferation in vitro by MTT/MTS method (cell activity experiment)). Details: AGS cells; MTT/MTS; 3 days of drug treatment; read-out: AGS IC50.
Assay type: cell-based
In short: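 KRAS G12D AGS cells seeded at 1000 per well, compound added 24 h later, 0.5% final DMSO. Viability read after 3 days of treatment by MTT (solubilised in DMSO) or MTS, 4 h, absorbance 490 nm. IC50 from dose–response curves versus DMSO control.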
CCC1CCCc2cc(O)cc(-c3ccc4c(N5C[C@H]6CC[C@@H](C5)N6)nc(OC[C@@]56CCCN5C[C@H](F)C6)nc4c3F)c21 (single isomer, unassigned) [Example 291] was tested, and the IC50 was 7.2 nM.

Same assay, conditions: Homo sapiens, AGS, 72 h, AGS cells; MTT/MTS; 3 days of drug treatment; read-out: AGS IC50
Work on C#Cc1cc2c(N3C[C@H]4CC[C@@H](C3)N4)nc(OC[C@@]34CCCN3C[C@H](F)C4)nc2c(F)c1-c1cc(O)cc2c1C(C)CCC2 (stereo partly drawn) [Example 374, 4-(4-((1R,5S)-3,8-diazabicyclo[3.2.1]octan-3-yl)-6-ethynyl-8-fluoro-2-(((2R,7aS)-2-fluorotetrahydro-1H-pyrrolizin-7a(5H)-yl)methoxy)quinazolin-7-yl)-5-methyl-5,6,7,8-tetrahydronaphthalen-2-ol] yielded an IC50 of 32 nM. In the case of C#Cc1cc2c(N3C[C@H]4CC[C@@H](C3)N4)nc(OC[C@@]34CCCN3C[C@H](F)C4)nc2c(F)c1-c1cc(O)cc2c1C(CC)C1CC21 (stereo partly drawn) [Example 372, 5-(4-((1R,5S)-3,8-diazabicyclo[3.2.1]octan-3-yl)-6-ethynyl-8-fluoro-2-(((2R,7aS)-2-fluorotetrahydro-1H-pyrrolizin-7a(5H)-yl)methoxy)quinazolin-7-yl)-6-ethyl-1,1a,6,6a-tetrahydrocyclopropa[a]inden-3-ol], the IC50 is reported as 65 nM. CCc1csc2cc(O)cc(-c3ncc4c(N5C[C@H]6CC[C@@H](C5)N6)nc(OC[C@@]56CCCN5C[C@H](F)C6)nc4c3F)c12 [Example 348, 4-(4-((1R,5S)-3,8-diazabicyclo[3.2.1]octan-3-yl)-8-fluoro-2-(((2R,7aS)-2-fluorotetrahydro-1H-pyrrolizin-7a(5H)-yl)methoxy)pyrido[4,3-d]pyrimidin-7-yl)-3-ethylbenzo[b]thiophen-6-ol] showed an IC50 of 85 nM. For Oc1cc(-c2ccc3c(N4C[C@H]5CC[C@@H](C4)N5)c(C(F)(F)F)c(OC[C@@]45CCCN4C[C@H](F)C5)nc3c2F)c2c(F)c(F)ccc2c1 [Example 187, 4-(4-((1R,5S)-3,8-diazabicyclo[3.2.1]octan-3-yl)-8-fluoro-2-(((2R,7aS)-2-fluorotetrahydro-1H-pyrrolizin-7a(5H)-yl)methoxy)-3-(trifluoromethyl)quinolin-7-yl)-5,6-difluoronaphthalen-2-ol], the IC50 was 1410 nM. For CC12CC1CCc1cc(O)cc(-c3ccc4c(N5C[C@H]6CC[C@@H](C5)N6)nc(OC[C@@]56CCCN5C[C@H](F)C6)nc4c3F)c12 (stereo partly drawn) [Example 281, 7-(4-((1R,5S)-3,8-diazabicyclo[3.2.1]octan-3-yl)-8-fluoro-2-(((2R,7aS)-2-fluorotetrahydro-1H-pyrrolizin-7a(5H)-yl)methoxy)quinazolin-7-yl)-7b-methyl-1a, 2,3,7b-tetrahydro-1H-cyclopropa[a]naphthalen-5-ol], the IC50 was 537 nM. C#Cc1c(F)ccc2cc(O)cc(-c3ncc4c(C56CCN(CC5)CC6)nc(OC[C@@]56CCCN5C[C@H](F)C6)nc4c3F)c12 [Example 71, 5-ethynyl-6-fluoro-4-(8-fluoro-2-(((2R, 7aS)-2-fluorotetrahydro-1H-pyrrolizin-7a(5H)-yl)methoxy)-4-(quinuclidin-4-yl)pyrido[4,3-d]pyrimidin-7-yl) naphthalen-2-ol] showed an IC50 of over 2500 nM. With Oc1cc(-c2ncc3c(C4C[C@H]5CC[C@@H](C4)N5)nc(OC[C@@]45CCCN4C[C@H](F)C5)nc3c2F)c2c(F)c(F)ccc2c1 (stereo partly drawn) [Example 78, 4-(4-((1R,5S)-8-azabicyclo[3.2.1]octan-3-yl)-8-fluoro-2-(((2R,7aS)-2-fluorotetrahydro-1H-pyrrolizin-7a(5H)-yl)methoxy)pyrido[4,3-d]pyrimidin-7-yl)-5,6-difluoronaphthalen-2-ol] the IC50 was over 2500 nM. Oc1cc2c(c(-c3ncc4c(N5C[C@H]6CC[C@@H](C5)N6)nc(OC[C@@]56CCCN5C[C@H](F)C6)nc4c3F)c1)C(C(F)F)CCC2 (stereo partly drawn) [Example 261, 4-(4-((1R,5S)-3,8-diazabicyclo[3.2.1]octan-3-yl)-8-fluoro-2-(((2R,7aS)-2-fluorotetrahydro-1H-pyrrolizin-7a(5H)-yl)methoxy)pyrido[4,3-d]pyrimidin-7-yl)-5-(difluoromethyl)-5,6,7,8-tetrahydronaphthalen-2-ol] was tested, and the IC50 was 1930 nM. CCC1CCCc2cc(O)cc(-c3ccc4c(N5C[C@H]6CC[C@@H](C5)N6)nc(OC[C@@]56CCCN5C[C@H](F)C6)nc4c3F)c21 (stereo partly drawn) [Example 289, 4-(4-((1R,5S)-3,8-diazabicyclo[3.2.1]octan-3-yl)-8-fluoro-2-(((2R,7aS)-2-fluorotetrahydro-1H-pyrrolizin-7a(5H)-yl)methoxy)quinazolin-7-yl)-5-ethyl-5,6,7,8-tetrahydronaphthalen-2-ol] showed an IC50 of 15 nM. CCc1c(F)ccc2cc(O)cc(-c3ncc4c(N5CC6CCC(C5)C6F)nc(OC[C@@]56CCCN5C[C@H](F)C6)nc4c3F)c12 (stereo partly drawn) [Example 35, 5-ethyl-6-fluoro-4-(8-fluoro-4-((1R,5S,8R)-8-fluoro-3-azabicyclo [3.2.1]octan-3-yl)-2-(((2R,7aS)-- fluorotetrahydro-1H-pyrrolizin-7a(5H)-yl)methoxy)pyrido[4,3-d]pyrimidin-7-yl) naphthalen-2-ol] was tested, and the IC50 was over 2500 nM. Work on CC1CCCc2cc(O)cc(-c3c(Cl)cc4c(N5C[C@H]6CC[C@@H](C5)N6)nc(OC[C@@]56CCCN5C[C@H](F)C6)nc4c3F)c21 (stereo partly drawn) [Example 301, 4-(4-((1R,5S)-3,8-diazabicyclo[3.2.1]octan-3-yl)-6-chloro-8-fluoro-2-(((2R,7aS)-2-fluorotetrahydro-1H-pyrrolizin-7a(5H)-yl)methoxy)quinazolin-7-yl)-5-methyl-5,6,7,8-tetrahydronaphthalen-2-ol] yielded an IC50 of 28 nM. Compound C#Cc1c(F)ccc2cc(O)cc(-c3ccc4c(N5CC(C)(N)C5)nc(OC[C@@]56CCCN5C[C@H](F)C6)nc4c3F)c12 [Example 217, 4-(4-(3-amino-3-methylazetidin-1-yl)-8-fluoro-2-(((2R,7aS)-2-fluorotetrahydro-1H-pyrrolizin-7a(5H)-yl)methoxy)quinazolin-7-yl)-5-ethynyl-6-fluoronaphthalen-2-ol] has an IC50 of 835 nM. C#Cc1c(F)ccc2cc(O)cc(-c3ncc4c(N5CCC(N)C5)nc(OC[C@@]56CCCN5C[C@H](F)C6)nc4c3F)c12 (stereo partly drawn) [Example 51, 4-(4-(3-aminopyrrolidin-1-yl)-8-fluoro-2-(((2R, 7aS)-2-fluorotetrahydro-1H-pyrrolizin-7a(5H)-yl)methoxy)pyrido[4,3-d]pyrimidin-7-yl)-5-ethynyl-6-fluoronaphthalen-2-ol] gave an IC50 of 1660 nM. For CCc1c(F)ccc2cc(O)cc(-c3ncc4c(N5C[C@H]6CC[C@@H](C5)N6)c(C#N)c(OC[C@@]56CCCN5C[C@H](F)C6)nc4c3F)c12 [Example 192, 4-((1R,5S)-3,8-diazabicyclo[3.2.1]octan-3-yl)-7-(8-ethyl-7-fluoro-3-hydroxynaphthalen-1-yl)-8-fluoro-2-(((2R,7aS)-2-fluorotetrahydro-1H-pyrrolizin-7a(5H)-yl)methoxy)-1,6-naphthyridine-3-carbonitrile], the IC50 was 121 nM. For C#Cc1c(F)ccc2cccc(N3CCc4c(nc(OC[C@@]56CCCN5C[C@H](COC(=O)N(C)C)C6)nc4N4C[C@H]5CC[C@@H](C4)N5)C3)c12 [Example 211, ((2R,7aS)-7a-(((4-((1R,5S)-3,8-diazabicyclo[3.2.1]octan-3-yl)-7-(8-ethynyl-7-fluoronaphthalen-1-yl)-5,6,7,8-tetrahydropyrido[3,4-d]pyrimidin-2-yl)oxy)methyl)hexahydro-1H-pyrrolizin-2-yl)methyl dimethylcarbamate], the IC50 was 55 nM. C#Cc1c(F)ccc2cc(O)cc(-c3ncc4c(N5CC6CCC(C5)C6F)nc(OC[C@@]56CCCN5C[C@H](F)C6)nc4c3F)c12 (stereo partly drawn) [Example 34, 5-ethynyl-6-fluoro-4-(8-fluoro-4-((1R,5S, 8R)-8-fluoro-3-azabicyclo [3.2.1]octan-3-yl)-2-(((2R,7aS)-2-fluorotetrahydro-1H-pyrrolizin-7a(5H)-yl)methoxy)pyrido[4,3-d]pyrimidin-7-yl) naphthalen-2-ol] gave an IC50 of over 2500 nM. Work on Nc1cc2ccc(F)c(F)c2c(-c2ncc3c(N4C[C@H]5CC[C@@H](C4)N5)nc(OC[C@@]45CCCN4C[C@H](F)C5)nc3c2F)n1 [Example 38, 1-(4-((1R,5S)-3,8-diazabicyclo[3.2.1]octan-3-yl)-8-fluoro-2-(((2R,7aS)-2-fluorotetrahydro-1H-pyrrolizin-7a(5H)-yl)methoxy)pyrido[4,3-d]pyrimidin-7-yl)-7,8-difluoroisoquinolin-3-amine] yielded an IC50 of over 2500 nM. For CCC1CCc2cc(O)cc(-c3ccc4c(NCC5(N(C)C)CCC5)nc(OC[C@@]56CCCN5C[C@H](F)C6)nc4c3F)c21 (stereo partly drawn) [Example 429, 7-(4-(((1-(dimethylamino)cyclobutyl)methyl)amino)-8-fluoro-2-(((2R,7aS)-2-fluorotetrahydro-1H-pyrrolizin-7a(5H)-yl)methoxy)quinazolin-7-yl)-1-ethyl-2,3-dihydro-1H-inden-5-ol], the IC50 was 75 nM. In the case of C#Cc1c(F)ccc2cc(O)cc(-c3ncc4c(N5C[C@H]6CC[C@@H](C5)N6)nc(OC[C@@]56CCCN5C[C@H](F)C6)nc4c3OC3CC3)c12 [Example 334, 4-(4-((1R,5S)-3,8-diazabicyclo[3.2.1]octan-3-yl)-8-cyclopropoxy-2-(((2R,7aS)-2-fluorotetrahydro-1H-pyrrolizin-7a(5H)-yl)methoxy)pyrido[4,3-d]pyrimidin-7-yl)-5-ethynyl-6-fluoronaphthalen-2-ol], the IC50 is reported as 125 nM. In the case of CC1CCCc2cc(O)cc(-c3ccc4c(N5C[C@H]6CC[C@@H](C5)N6)nc(OC[C@@]56CCCN5C[C@H](F)C6)nc4c3F)c21 (stereo partly drawn) [Example 282, 4-(4-((1R,5S)-3,8-diazabicyclo[3.2.1]octan-3-yl)-8-fluoro-2-(((2R,7aS)-2-fluorotetrahydro-1H-pyrrolizin-7a(5H)-yl)methoxy)quinazolin-7-yl)-5-methyl-5,6,7,8-tetrahydronaphthalen-2-ol], the IC50 is reported as 15 nM. With Oc1cc(-c2ccc3c(N4C[C@H]5CC[C@@H](C4)N5)nc(OC[C@@]45CCCN4C[C@H](F)C5)nc3n2)c2c(F)cccc2c1 [Example 143, 4-(4-((1R,5S)-3,8-diazabicyclo[3.2.1]octan-3-yl)-2-(((2R,7aS)-2-fluorotetrahydro-1H-pyrrolizin-7a(5H)-yl)methoxy)pyrido[2,3-d]pyrimidin-7-yl)-5-fluoronaphthalen-2-ol] the IC50 was over 2500 nM.
